Measured values taken from patent publication US10190138B2, “Methods using short chain peracids to replace antibiotics for controlling fermentation process infection” (Ecolab USA Inc., priority 2012, dated 2019).

Columns and labels:
[1] = pH 4
Text: The issue of low solubility when using long chain peracids has been addressed by increasing the pH to above 7. […] Further, bleaching efficacy decreases proportionally with every pH unit increase over about 7.

Lactobacilli = conditions: 2 hours of contact time in the absence of yeast; cited from earlier work
L. fermentum = assay: MRS broth fermentation, CO2 respirometry; assay type: cell-based, Lactobacillus fermentum; conditions: 1 ppm, 1×10^5 cell/mL start
Procedure: Solutions of Vortexx and Octave were provided by the Ecolab, Inc. The antibiotic Virginiamycin was purchased from SantaCruz Biotechnology. Ethanol Red yeast (Fermentis), and Lactobacillus fermentum were revived from 10% glycerol stocks maintained at […]. Yeast was grown at 30° C. under aerobic conditions in either liquid YPD medium or on YPD agar prior to use in propagations and fermentations. Bacteria were grown at 30° C. under anaerobic conditions in either liquid MRS broth, and or on MRS agar plates. Liquefied corn mash and gluco-amylase enzyme was provided by Illinois River Energy (Rochelle, Ill.).
Fermentations were conducted in Wheaton glass bottles placed in a 30° C. recirculating water bath atop an 8-position magnetic stir-plate. Each bottle was sealed with a rubber septum cap and connected through ⅛″ tubing to a respirometer instrument (Challenger Instruments), which quantified the off-gassing of CO2 during fermentation.
MRS broth fermentations were conducted in 0.125 L Wheaton bottles, each containing the 100 mL of MRS broth and 4 mL propagated bacteria. […]
MRS broth, which contains only 0.6% solids compared to typical liquefied corn mash at 30% solids, represents a relatively simple test of the effectiveness of the peracid chemistries for controlling Lactobacillus growth. […] All bottles were placed monitored via respirometry under identical conditions. […]

Which solubility [1] does the source give for `O=C(CCCCCCCCCCS(=O)(=O)O)OO` [11-sulfoundecane peroxoic acid] here?
Its solubility is “about 1.3%”.

For `OO` [hydrogen peroxide], which “hydrogen peroxide required for effective bacterial control” value (Lactobacilli) is on record?
The value was 600 ppm.

Which results are given for Virginiamycin?
CO2 production (L. fermentum): failed to produce any CO2; bacterial growth (L. fermentum): no bacterial growth
